pEC50, pIC50: −log10 of the molar value. Read-outs that look alike come from different tables or passages of the source.
Tests used:
[1] = biological target: SARS-CoV-2 3CL-protease (Severe acute respiratory syndrome coronavirus 2 (2019-nCoV) (SARS-CoV-2), UniProt P0DTD1); test: SARS-CoV-2 3C-Like (3CL) Protease Fluorescence Assay (FRET); format: biochemical
[2] = system: 229E human corona virus (hCoV); test: 229E Live Virus Assay (MRC-5 cells, CPE, ATPlite readout); format: cell-based, hCoV-229E; settings: Human coronavirus 229E, MRC5, 144 h, read-out: 229E EC50; for EC50: MRC-5 cells, hCoV-229E MOI 0.05, 6 days at 34° C., ATPlite, duplicate, ranges defined in μM

With `CC(C)C[C@@H](C(=O)N1C[C@]2(C[C@H]1C#N)C(=O)Nc1ccccc12)N(C)C(=O)[C@@H](NC(=O)OCc1ccccc1)C1CCCCC1` [Example 20] the pIC50 [1] was over 7.00 and the pEC50 [2] was over 7.00.

`CC(C)C[C@@H](C(=O)N1C[C@]2(C[C@H]1C#N)C(=O)Nc1ccccc12)N(C)C(=O)[C@@H](NC(=O)C(F)(F)F)C1CCCCC1` [Example 21] was tested, and the pIC50 [1] was over 7.00 and the pEC50 [2] was over 7.00.

With `CC(C)C[C@@H](C(=O)N1C[C@]2(C[C@H]1C#N)C(=O)Nc1ccccc12)N(C)C(=O)C(NC(=O)OCc1ccccc1)c1ccccc1` (stereo partly shown) [Example 22] the pIC50 [1] was over 7.00 and the pEC50 [2] was over 7.00.

`COC(=O)N[C@H](C(=O)N(C)[C@@H](CC(C)C)C(=O)N1C[C@]2(C[C@H]1C#N)C(=O)Nc1ccccc12)C1CCCCC1` [Example 23] showed a pIC50 [1] of over 7.00 and a pEC50 [2] of 6.00 to 7.00.

In the case of `CC(C)C[C@@H](C(=O)N1C[C@]2(C[C@H]1C#N)C(=O)Nc1ccccc12)N(C)C(=O)[C@H](CC1CCC1)NC(=O)OCc1ccccc1` [Example 24], the pIC50 [1] was over 7.00 and the pEC50 [2] was over 7.00.

Compound `CC(C)C[C@@H](C(=O)N1C[C@]2(C[C@H]1C#N)C(=O)Nc1ccccc12)N(C)C(=O)[C@H](CC(C)(C)C)NC(=O)OCc1ccccc1` [Example 25] has a pIC50 [1] of over 7.00 and a pEC50 [2] of over 7.00.

With `CC(C)C[C@@H](C(=O)N1C[C@]2(C[C@H]1C#N)C(=O)Nc1ccccc12)N(C)C(=O)[C@H](CC(C)(C)C)NC(=O)C(F)(F)F` [Example 26] the pIC50 [1] was over 7.00 and the pEC50 [2] was over 7.00.

`CC(C)C[C@@H](C(=O)N1C[C@]2(C[C@H]1C#N)C(=O)Nc1ccccc12)N(C)C(=O)[C@H](CC1CCC1)NC(=O)C(F)(F)F` [Example 27] gave a pIC50 [1] of over 7.00 and a pEC50 [2] of over 7.00.

With `CN(C(=O)[C@@H](NC(=O)OCc1ccccc1)C(C)(C)C)[C@@H](Cc1ccccc1)C(=O)N1C[C@]2(C[C@H]1C#N)C(=O)Nc1ccccc12` [Example 28] the pIC50 [1] was over 7.00 and the pEC50 [2] was 6.00 to 7.00.

`CN(C(=O)[C@@H](N)C(C)(C)C)[C@@H](Cc1ccccc1)C(=O)N1C[C@]2(C[C@H]1C#N)C(=O)Nc1ccccc12` [Example 29] gave a pIC50 [1] of over 7.00 and a pEC50 [2] of 6.00 to 7.00.

`CN(C(=O)[C@@H](NCc1cc(F)c(F)cc1F)C(C)(C)C)[C@@H](Cc1ccccc1)C(=O)N1C[C@]2(C[C@H]1C#N)C(=O)Nc1ccccc12` [Example 30] showed a pIC50 [1] of over 7.00 and a pEC50 [2] of 6.00 to 7.00.

For `CC(C)C[C@@H](C(=O)N1C[C@]2(C[C@H]1C#N)C(=O)Nc1ccccc12)N(C)C(=O)[C@H](CC(C)(C)C)N(C)C(=O)OCc1ccccc1` [Example 32], the pIC50 [1] was over 7.00 and the pEC50 [2] was over 7.00.

`CC(C)C[C@@H](C(=O)N1C[C@]2(C[C@H]1C#N)C(=O)Nc1ccccc12)N(C)C(=O)[C@H](CC(C)(C)C)NC(=O)c1ccc(F)cc1` [Example 34] was tested, and the pIC50 [1] was over 7.00 and the pEC50 [2] was over 7.00.

In the case of `CC(C)C[C@@H](C(=O)N1C[C@]2(C[C@H]1C#N)C(=O)Nc1ccccc12)N(C)C(=O)[C@H](CC1CCC1)NC(=O)c1ccc(F)cc1` [Example 35], the pIC50 [1] was over 7.00 and the pEC50 [2] was over 7.00.

Compound `CC(C)C[C@H](NC(=O)[C@@H](NC(=O)OCc1ccccc1)C(C)(C)C)C(=O)N1C[C@]2(C[C@H]1C#N)C(=O)Nc1ccccc12` [Example 36] has a pIC50 [1] of over 7.00 and a pEC50 [2] of 6.00 to 7.00.

In the case of `Cc1cc(C(=O)N[C@@H](Cc2ccc(F)cc2)C(=O)N(C)[C@@H](CC(C)(C)C)C(=O)N2C[C@]3(C[C@H]2C#N)C(=O)Nc2ccccc23)no1` [Example 39], the pIC50 [1] was over 7.00 and the pEC50 [2] was over 7.00.

`Cc1cc(C(=O)N[C@H](C(=O)N(C)[C@@H](CC(C)C)C(=O)N2C[C@]3(C[C@H]2C#N)C(=O)Nc2ccccc23)C2CCCCC2)no1` [Example 40] showed a pIC50 [1] of over 7.00 and a pEC50 [2] of 6.00 to 7.00.

In the case of `CC(=O)N[C@@H](CC1CC1)C(=O)N(C)[C@@H](CC(C)C)C(=O)N1C[C@]2(C[C@H]1C#N)C(=O)Nc1ccccc12` [Example 41], the pIC50 [1] was over 7.00 and the pEC50 [2] was over 7.00.

`CC(C)C[C@@H](C(=O)N1C[C@]2(C[C@H]1C#N)C(=O)Nc1ccccc12)N(C)C(=O)[C@H](CC1CCC1)NC(=O)C(C)(C)C` [Example 42] showed a pIC50 [1] of over 7.00 and a pEC50 [2] of over 7.00.

For `CC(C)C[C@@H](C(=O)N1C[C@]2(C[C@H]1C#N)C(=O)Nc1ccccc12)N(C)C(=O)[C@H](CC(C)(C)C)NC(=O)C(C)(C)C` [Example 43], the pIC50 [1] was over 7.00 and the pEC50 [2] was over 7.00.

With `CC(=O)N(C)[C@@H](CC(C)(C)C)C(=O)N(C)[C@@H](CC(C)C)C(=O)N1C[C@]2(C[C@H]1C#N)C(=O)Nc1ccccc12` [Example 44] the pIC50 [1] was over 7.00 and the pEC50 [2] was 6.00 to 7.00.

Compound `CC(C)C[C@@H](C(=O)N1C[C@]2(C[C@H]1C#N)C(=O)Nc1ccccc12)N(C)C(=O)[C@H](CC1CCC1)NC(=O)c1cc2c(F)cc(F)c(F)c2[nH]1` [Example 45] has a pIC50 [1] of over 7.00 and a pEC50 [2] of 6.00 to 7.00.

With `CC(C)[C@H](NC(=O)OC(C)(C)C)C(=O)N(C)[C@@H](Cc1ccccc1)C(=O)N1C[C@]2(C[C@H]1C#N)C(=O)Nc1ccccc12` [Example 47] the pIC50 [1] was over 7.00 and the pEC50 [2] was over 7.00.

`CC(C)[C@@H](NC(=O)OC(C)(C)C)C(=O)N(C)[C@@H](Cc1ccccc1)C(=O)N1C[C@]2(C[C@H]1C#N)C(=O)Nc1ccccc12` [Example 48] showed a pIC50 [1] of over 7.00 and a pEC50 [2] of over 7.00.

`CC(C)C[C@@H](C(=O)N1C[C@]2(C[C@H]1C#N)C(=O)Nc1ccccc12)N(C)C(=O)[C@@H](NC(=O)OCc1ccccc1)C(C)C` [Example 49] gave a pIC50 [1] of over 7.00 and a pEC50 [2] of over 7.00.

For `CC(C)C[C@@H](C(=O)N1C[C@]2(C[C@H]1C#N)C(=O)Nc1ccccc12)N1CC[C@H](NC(=O)C(F)(F)F)C1=O` [Example 50], the pIC50 [1] was 6.00 to 7.00 and the pEC50 [2] was under 6.00.

With `CC(C)[C@@H](NC(=O)C(F)(F)F)C(=O)N(C)[C@@H](Cc1ccccc1)C(=O)N1C[C@]2(C[C@H]1C#N)C(=O)Nc1ccccc12` [Example 51] the pIC50 [1] was over 7.00 and the EC50 [2] was 0.1 to 1 µM.

In the case of `CN(C(=O)[C@H](Cc1ccc(F)cc1)N1CCOC1=O)[C@@H](CC(C)(C)C)C(=O)N1C[C@]2(C[C@H]1C#N)C(=O)Nc1ccccc12` [Example 52], the pIC50 [1] was over 7.00 and the pEC50 [2] was over 7.00.

`CN(C(=O)[C@H](Cc1ccc(F)cc1)n1cc(-c2ccccc2)nn1)[C@@H](CC(C)(C)C)C(=O)N1C[C@]2(C[C@H]1C#N)C(=O)Nc1ccccc12` [Example 54] gave a pIC50 [1] of over 7.00 and a pEC50 [2] of over 7.00.

In the case of `CC(C)(C)C(N)C(=O)N1CCC[C@H]1C(=O)N1C[C@]2(C[C@H]1C#N)C(=O)Nc1ccccc12` (stereo partly shown) [Example 56], the pIC50 [1] was under 6.00 and the EC50 [2] was over 1 µM.

For `CC(C)(C)C(NS(=O)(=O)c1ccccc1)C(=O)N1CCC[C@H]1C(=O)N1C[C@]2(C[C@H]1C#N)C(=O)Nc1ccccc12` (stereo partly shown) [Example 57], the pIC50 [1] was under 6.00 and the pEC50 [2] was under 6.00.

With `CC(C)(C)C(NC(=O)c1ccc(F)cc1)C(=O)N1CCC[C@H]1C(=O)N1C[C@]2(C[C@H]1C#N)C(=O)Nc1ccccc12` (stereo partly shown) [Example 58] the pIC50 [1] was under 6.00 and the pEC50 [2] was under 6.00.

Work on `CC(C)OC(=O)NC(C(=O)N1CCC[C@H]1C(=O)N1C[C@]2(C[C@H]1C#N)C(=O)Nc1ccccc12)C(C)(C)C` (stereo partly shown) [Example 59] yielded a pIC50 [1] of under 6.00 and a pEC50 [2] of under 6.00.

For `CC(C)(C)C(NC(=O)NCc1ccccc1)C(=O)N1CCC[C@H]1C(=O)N1C[C@]2(C[C@H]1C#N)C(=O)Nc1ccccc12` (stereo partly shown) [Example 60], the pIC50 [1] was under 6.00 and the pEC50 [2] was under 6.00.

With `CC(C)(C)C(NCc1cc(F)c(F)cc1F)C(=O)N1CCC[C@H]1C(=O)N1C[C@]2(C[C@H]1C#N)C(=O)Nc1ccccc12` (stereo partly shown) [Example 61] the pIC50 [1] was under 6.00 and the pEC50 [2] was under 6.00.

With `CC(C)(C)C[C@H](NC(=O)[C@H](Cc1ccc(F)cc1)NC(=O)OCc1ccccc1)C(=O)N1C[C@]2(C[C@H]1C#N)C(=O)Nc1ccccc12` [Example 62] the pIC50 [1] was over 7.00 and the pEC50 [2] was under 6.00.

Compound `CC(C)(C)C[C@H](NC(=O)[C@H](Cc1ccc(F)cc1)NC(=O)C(F)(F)F)C(=O)N1C[C@]2(C[C@H]1C#N)C(=O)Nc1ccccc12` [Example 63] has a pIC50 [1] of over 7.00 and an EC50 [2] of under 0.1 µM.

`CN(C(=O)[C@H](Cc1ccc(F)cc1)NC(=O)C1CCC1)[C@@H](CC(C)(C)C)C(=O)N1C[C@]2(C[C@H]1C#N)C(=O)Nc1ccccc12` [Example 64] was tested, and the pIC50 [1] was over 7.00 and the pEC50 [2] was over 7.00.

`CN(C(=O)[C@H](Cc1ccc(F)cc1)NC(=O)C1COC1)[C@@H](CC(C)(C)C)C(=O)N1C[C@]2(C[C@H]1C#N)C(=O)Nc1ccccc12` [Example 65] was tested, and the pIC50 [1] was over 7.00 and the pEC50 [2] was over 7.00.

With `CN(C(=O)[C@H](Cc1ccc(F)cc1)NS(=O)(=O)C1CC1)[C@@H](CC(C)(C)C)C(=O)N1C[C@]2(C[C@H]1C#N)C(=O)Nc1ccccc12` [Example 66] the pIC50 [1] was over 7.00 and the pEC50 [2] was over 7.00.

`CN(C(=O)[C@H](Cc1ccc(F)cc1)N1CCCC1=O)[C@@H](CC(C)(C)C)C(=O)N1C[C@]2(C[C@H]1C#N)C(=O)Nc1ccccc12` [Example 67] gave a pIC50 [1] of over 7.00 and a pEC50 [2] of over 7.00.

Work on `CN(C(=O)[C@H](Cc1ccc(F)cc1)NC(=O)N1CCOCC1)[C@@H](CC(C)(C)C)C(=O)N1C[C@]2(C[C@H]1C#N)C(=O)Nc1ccccc12` [Example 68] yielded a pIC50 [1] of over 7.00 and a pEC50 [2] of over 7.00.

With `CN(C(=O)[C@H](Cc1ccc(F)cc1)N1CCCNC1=O)[C@@H](CC(C)(C)C)C(=O)N1C[C@]2(C[C@H]1C#N)C(=O)Nc1ccccc12` [Example 69] the pIC50 [1] was over 7.00 and the pEC50 [2] was 6.00 to 7.00.

`CN(C(=O)[C@H](CC1CC1)NS(=O)(=O)c1ccn(-c2ccc(F)cc2)n1)[C@@H](CC(C)(C)C)C(=O)N1C[C@]2(C[C@H]1C#N)C(=O)Nc1ccccc12` [Example 70] showed a pIC50 [1] of over 7.00 and a pEC50 [2] of over 7.00.

`CN(C(=O)[C@H](CC1CC1)N1CCOC1=O)[C@@H](CC(C)(C)C)C(=O)N1C[C@]2(C[C@H]1C#N)C(=O)Nc1ccccc12` [Example 72] showed a pIC50 [1] of over 7.00 and a pEC50 [2] of over 7.00.

Work on `[2H]C([2H])([2H])N(C(=O)[C@H](CC1CC1)NC(C)=O)[C@@H](Cc1ccc(F)cc1)C(=O)N1C[C@]2(C[C@H]1C#N)C(=O)Nc1ccccc12` [Example 73] yielded a pIC50 [1] of over 7.00 and a pEC50 [2] of over 7.00.

`[2H]C([2H])([2H])N(C(=O)[C@H](CC1CC1)NC(=O)C(F)(F)F)[C@@H](Cc1ccc(F)cc1)C(=O)N1C[C@]2(C[C@H]1C#N)C(=O)Nc1ccccc12` [Example 74] showed a pIC50 [1] of over 7.00 and a pEC50 [2] of over 7.00.
